The values below come from patent publication US5550129A, “Benzopyranones, processes for their preparation and their use” (Willmar Schwabe GmbH & Co., priority 1992, dated 1996).

Test [1] has as its system NMDA-induced death. Briefly: NMDA test (25 mg/kg i.v.), protection against NMDA-induced death. The settings on record: Mus musculus; for ED50: 1 h, oral, one hour before NMDA 25 mg/kg i.v., dose protecting 50% of animals against NMDA-induced death; for responders at 5 mg/kg: 5 mg/kg oral, 1 hr before test, NMDA 25 mg/kg i.v., proportion of surviving animals, read-out: Protective action. Type of test: in vivo, male NMRI mice. The protocol:
The following method was used to determine the neuroprotective/anticonvulsive activity of the compounds according to the invention of the general formula I: […]
In order to evaluate the neuroprotective activity, NMDA was administered intravenously in an amount of 25 mg/kg/10 ml to male NMRI mice having a body weight of 20-25 g. As a result of this administration the animals suffered clonic and in some cases also tonic convulsions, leading to death. Prevention of death is used as a criterion of the effectiveness of the investigated compounds.
All experimental animals had free access to food and water before the experiments. The test and reference substances were administered orally as a suspension in 0.2% agar or water, by means of a pharyngeal probe, in some cases with the aid of solubilizers such as PEG-400. Control animals received the same volume of solvents, if necessary with the addition of solubilizers. One hour after administration of the substance NMDA was administered intravenously and the occurrence of convulsions was observed.
The results of the tests carried out (NMDA 25 mg i.v.) at doses of 5 mg of the compounds according to the invention per kg body weight compared to known NMDA antagonists are given in Table 1. The percentage proportion of the surviving animals is given as % effect.
Table 1 also gives as ED-50 values those doses of the substances according to the invention and other NMDA antagonists, which in the NMDA i.v. test (25 mg/kg) one hour after administration protected 50% of the animals against NMDA-induced death.
The ED-50 values were determined according to the method of Lichtfield and Wilcoxon, J. Pharmacol. exp. Therapeut. 96, 99 (1949), in each case using 4-5 groups of animals each containing 10 animals per dose stage.

Test [2] deals with NMDA-induced death. The description is as above. The settings on record: Mus musculus, 1 hr before test, NMDA 25 mg/kg i.v., proportion of surviving animals, read-out: Protective action; for responders at 50 mg/kg: 50 mg/kg oral; for responders at 20 mg/kg: 20 mg/kg oral. Type of test: in vivo, male NMRI mice.

With `COc1ccc2c(c1)[C@]13CCCC[C@@H]1[C@H](C2)N(C)CC3` [Dextromethorphan, reference compound], the ED50 (as a rule, the midpoint of the dose-response relation) in the test with NMDA-induced death [1] worked out at 66.7 mg/kg. Besides, in the test on NMDA-induced death [2], the responders at 50 mg/kg was determined as 50%.
For `COc1ccc2c(C)c(CCN3CCN(c4ccccc4OC)CC3)c(=O)oc2c1` [Example 1, 7-methoxy-3-{2-[4-(2-methoxyphenyl)-1-piperazinyl]ethyl}-4-methyl-2H-1-benzopyran-2-one], in the test with NMDA-induced death [1], the ED50 was found to be 0.8 mg/kg and the responders at 5 mg/kg is 87.5%.
With `COc1cc2oc(=O)c(CCN3CCN(c4ccccc4OC)CC3)c(C)c2cc1O` [Example 2, 6-hydroxy-7-methoxy-3-{2-[4-(2-methoxyphenyl)-1-piperazinyl]ethyl}-4-methyl-2H-1-benzopyran-2-one], in the test on NMDA-induced death [1], the ED50 stood at 0.2 mg/kg and the responders at 5 mg/kg came out at 100%.
As for `COc1cc2oc(=O)c(CCN3CCN(c4ccccc4)CC3)c(C)c2cc1OC` [Example 3, 6,7-dimethoxy-4-methyl-3-[2-(4-phenyl-1-piperazinyl)ethyl]-2H-1-benzopyran-2-one], in the test with NMDA-induced death [1], the responders at 5 mg/kg came to 50%.
With `COc1cc2oc(=O)c(CCN3CCN(c4ccccc4OC)CC3)c(C)c2cc1OC` [Example 4, 6,7-dimethoxy-3-{2-[4-(2-methoxyphenyl)-1-piperazinyl)ethyl]-4-methyl-2H-1-benzopyran-2-one], in the test with NMDA-induced death [1], the 50% effect level (ED50) was put at a dose of 0.4 mg/kg and the responders at 5 mg/kg was 100%.
Regarding `CCOc1cc2c(C)c(CCN3CCC(c4ccccc4)CC3)c(=O)oc2cc1OC` [Example 5, 6-ethoxy-7-methoxy-4-methyl-3-[2-(4-phenyl-1-piperidinyl)ethyl]-2H-1-benzopyran-2-one], in the test with NMDA-induced death [1], the ED50 turned out to be 4.1 mg/kg and the responders at 5 mg/kg is 75%.
In the same order, the values of `CCOc1cc2c(C)c(CCN3CCN(c4ccccc4)CC3)c(=O)oc2cc1OC` [Example 6, 6-ethoxy-7-methoxy-4-methyl-3-[2-(4-phenyl-1-piperazinyl)ethyl]-2H-1-benzopyran-2-one] are 2 mg/kg and 87.5%.
In the case of `CCOc1cc2c(C)c(CCN3CCN(c4ccccc4OC)CC3)c(=O)oc2cc1OC` [Example 7, 6-ethoxy-7-methoxy-3-{2-[4-(2-methoxyphenyl)-1-piperazinyl]ethyl}-4-methyl-2H-1-benzopyran-2-one], in the test on NMDA-induced death [1], the ED50 was found to be 0.4 mg/kg and the responders at 5 mg/kg is 100%.
For the molecule `COc1cc2oc(=O)c(CCN3CCN(c4ccccc4OC)CC3)c(C)c2cc1OC(C)C` [Example 8, 7-methoxy-3-{2-[4-(2-methoxyphenyl)-1-piperazinyl]ethyl}-4-methyl-6-(1-methylethoxy)-2H-1-benzopyran-2-one], in the test on NMDA-induced death [1], the ED50 stood at 0.7 mg/kg and the responders at 5 mg/kg was determined as 100%.
On to `CCS(=O)(=O)Oc1cc2c(C)c(CCN3CCN(c4ccccc4OC)CC3)c(=O)oc2cc1OC` [Example 9, 6-(ethanesulphonyloxy)-7-methoxy-3-(2-[4-(2-methoxyphenyl)-1-piperazinyl]-ethyl)-4-methyl-2H-1-benzopyran-2-one], for which, in the test on NMDA-induced death [1], the ED50 turned out to be 0.6 mg/kg and the responders at 5 mg/kg turned out to be 100%.
Consider `COc1ccccc1N1CCN(CCc2c(C)c3ccc(OC)c(OC)c3oc2=O)CC1` [Example 10, 7,8-dimethoxy-3-{2-[4-(2-methoxyphenyl)-1-piperazinyl]ethyl}-4-methyl-2H-1-benzopyran-2-one], for which, in the test on NMDA-induced death [1], it took a dose of 0.4 mg/kg to reach the 50% effect level (ED50) and the responders at 5 mg/kg stood at 100%.
For `CCOc1ccc2c(C)c(CCN3CCN(c4ccccc4OC)CC3)c(=O)oc2c1OCC` [Example 11, 7,8-diethoxy-3-{2-[4-(2-methoxyphenyl)-1-piperazinyl]ethyl}-4-methyl-2H-1-benzopyran-2-one], in the test on NMDA-induced death [1], the responders at 5 mg/kg turned out to be 100%.
As to `COc1cc2oc(=O)c(CCN3CCC(c4ccccc4)CC3)c(C)c2c(OC)c1OC` [Example 12, 5,6,7-trimethoxy-4-methyl-3-[2-(4-phenyl-1-piperidinyl)ethyl]-2H-1-benzopyran-2-one], in the test on NMDA-induced death [1], the ED50 was 3.4 mg/kg and the responders at 5 mg/kg was determined as 75%.
With `COc1cc2oc(=O)c(CCN3CCN(c4ccccc4)CC3)c(C)c2c(OC)c1OC` [Example 13, 5,6,7-trimethoxy-4-methyl-3-[2-(4-phenyl-1-piperazinyl)ethyl]-2H-1-benzopyran-2-one], the responders at 5 mg/kg with NMDA-induced death [1] was determined as 62.5%.
Take `COc1cc(OC)c2c(C)c(CCN3CCC(c4ccccc4)CC3)c(=O)oc2c1` [Example 14, 5,7-dimethoxy-4-methyl-3-[2-(4-phenyl-1-piperidinyl)ethyl]-2H-1-benzopyran-2-one]: in the test on NMDA-induced death [1], the 50% effective dose (ED50) was 2.2 mg/kg and the responders at 5 mg/kg amounted to 87.5%.
For `COc1cc(OC)c2c(C)c(CCN3CCN(c4ccccc4)CC3)c(=O)oc2c1` [Example 15, 5,7-dimethoxy-4-methyl-3-[2-(4-phenyl-1-piperazinyl)ethyl]-2H-1-benzopyran-2-one] the same measures were 1 mg/kg and 87.5%.
In the case of `COc1ccccc1N1CCN(CCc2c(C)c3c(O)cc(O)cc3oc2=O)CC1` [Example 16, 5,7-dihydroxy-3-{2-[4-(2-methoxyphenyl)-1-piperazinyl]ethyl}-4-methyl-2H-1-benzopyran-2-one], in the test on NMDA-induced death [1], the 50% effect level (ED50) was put at a dose of 0.2 mg/kg and the responders at 5 mg/kg was determined as 100%.
`COc1cc(OC)c2c(C)c(CCN3CCN(c4ccccc4OC)CC3)c(=O)oc2c1` [Example 17, 5,7-dimethoxy-3-{2-[4-(2-methoxyphenyl)-1-piperazinyl]ethyl}-4-methyl-2H-1-benzopyran-2-one]: in the test with NMDA-induced death [1], the ED50 came out at 0.2 mg/kg and the responders at 5 mg/kg is 100%.
For `CCOc1cc(OCC)c2c(C)c(CCN3CCN(c4ccccc4OC)CC3)c(=O)oc2c1` [Example 18, 5,7-diethoxy-3-{2-[4-(2-methoxyphenyl)-1-piperazinyl]ethyl}-4-methyl-2H-1-benzopyran-2-one] the same measures were 0.6 mg/kg and 100%.
In the case of `CCCOc1cc(OCCC)c2c(C)c(CCN3CCN(c4ccccc4OC)CC3)c(=O)oc2c1` [Example 19, 3-{2-[4-(2-methoxyphenyl)-1-piperazinyl]ethyl}-4-methyl-5,7-dipropoxy-2H-1-benzopyran-2-one], in the test with NMDA-induced death [1], the responders at 5 mg/kg amounted to 100%.
The same measure, in the same setting: the result for `CCOc1ccccc1N1CCN(CCc2c(C)c3c(OC)cc(OC)cc3oc2=O)CC1` [Example 20, 3-{2-[4-(2-ethoxyphenyl)-1-piperazinyl]ethyl}-5,7-dimethoxy-4-methyl-2H-1-benzopyran-2-one] reads 100%; that for `COc1cc(OC)c2c(C)c(CCN3CCN(c4ccccc4C)CC3)c(=O)oc2c1` [Example 21, 5,7-dimethoxy-4-methyl-3-{2-[4-(2-methylphenyl)-1-piperazinyl]ethyl}-2H-1-benzopyran-2-one], 87.5%; that for `COc1cc(OC)c2c(C)c(CCN3CCN(c4ccccc4F)CC3)c(=O)oc2c1` [Example 22, 3-{2-[4-(2-fluorophenyl)-1-piperazinyl]ethyl}-5,7-dimethoxy-4-methyl-2H-1-benzopyran-2-one], 100%.
`COc1cc(OC)c2c(C)c(CCN3CCN(c4cccc(C(F)(F)F)c4)CC3)c(=O)oc2c1` [Example 23, 5,7-dimethoxy-4-methyl-3-{2-[4-(3-trifluoromethylphenyl)-1-piperazinyl]ethyl}-2H-1-benzopyran-2-one]: the responders at 5 mg/kg in the test with NMDA-induced death [1] came out at 25%.
As for `COc1cc(OC)c2c(C)c(CCN3CCC(O)(c4ccccc4)CC3)c(=O)oc2c1` [Example 24, 3-[2-(4-hydroxy-4-phenyl-1-piperidinyl)ethyl]-5,7-dimethoxy-4-methyl-2H-1-benzopyran-2-one], the responders at 5 mg/kg in the test on NMDA-induced death [1] is 25%.
In the case of `COc1cc(OC)c2c(C)c(CCN3CCN(c4ccccc4O)CC3)c(=O)oc2c1` [Example 25, 3-{2-[4-(2-hydroxyphenyl)-1-piperazinyl]-ethyl}-5,7-dimethoxy-4-methyl-2H-1-benzopyran-2-one], the responders at 5 mg/kg in the test on NMDA-induced death [1] is 87.5%.
Consider `Fc1ccc(C(c2ccc(F)cc2)N2CCN(C/C=C/c3ccccc3)CC2)cc1` [Flunarizin, reference compound], for which the 50% effect level in the test on NMDA-induced death [1] (ED50) was put at a dose of 22.8 mg/kg. Besides, the responders at 50 mg/kg in the test on NMDA-induced death [2] was 100%.
In the case of `CNC1(c2ccccc2Cl)CCCCC1=O` (stereo not shown) [Ketamin], the responders at 20 mg/kg in the test with NMDA-induced death [2] was found to be 0%.
`COCCOC(=O)C1=C(C)NC(C)=C(C(=O)OC(C)C)C1c1cccc([N+](=O)[O-])c1` (stereo not shown) [Nimodipin, reference compound]: the 50% effect level in the test with NMDA-induced death [1] (ED50) was put at a dose of 18.5 mg/kg. In addition, the responders at 20 mg/kg in the test with NMDA-induced death [2] is 87.5%.
The molecule `COc1ccc(CCN(C)CCCC(C#N)(c2ccc(OC)c(OC)c2)C(C)C)cc1OC` (stereo not shown) [Verapamil, reference compound] registered an ED50 in the test with NMDA-induced death [1] of 17.3 mg/kg. For the same molecule, the responders at 20 mg/kg in the test on NMDA-induced death [2] amounted to 87.5%.
